Test results published in paper PMC10319809, “Chronic UCN2 treatment desensitizes CRHR2 and improves insulin sensitivity” (Nature Communications, 2023).
Where no end group is shown, it is not given here.

Test system: male mice
Assay: Insulin tolerance test (ITT), blood glucose
Assay type: in vivo, mouse
Design: dose or concentration left out as unconfirmed
Settings: 0.05, 0.2
Method: All metabolic tests were performed using standard protocols on male littermates (aged: 10–14 weeks). For glucose tolerance tests (GTTs), animals were fasted for 8 h with ad libitum access to water. Fasting glucose measurements were taken before […] oral glucose dose. Blood glucose measurements were taken via tail nick using the AlphaTRAK 2 Glucose Monitoring System (Zoetis, Parsippany-Troy Hills, NJ) at 10, 30, 60, and 120 min after dose. Blood was collected for insulin measurement in EDTA tubes (Becton, Dickinson and Company, Franklin Lakes, NJ) and centrifuged to collect plasma (2000 g for 10 min at 4 °C), which was stored at −80 °C until analysis at 10, 30, 60, and 120 min after dose. Insulin levels were measured using an Ultrasensitive Mouse Insulin ELISA (ALPCO, Salem, NH), according to manufacturer’s instructions. For insulin tolerance tests (ITTs), animals were fasted for 8 h and blood glucose was measured before (0 min) and at 30, 60, 90, and 120 min following IP injection of 0.75 IU/kg of insulin (Humulin R, Eli Lilly, Indianapolis, IN). […]

“IVLSLDVPIGLLQILLEQARARAAREQATTNARILARVGHC-NH2 (C-terminus assumed) [UCN2, Urocortin 2]” was tested, and the “effect of increasing doses in ITT” value was “decreasing rates of glucose uptake in response to insulin injection”.
